Reference: patent US7439040B2, “Protease regulator screening assay” (Novartis Vaccines and Diagnostics, Inc., priority 1996, dated 2008)
“And” between values parts separate entries of the source, which are not always exact repeats. Equal values may be shown once.

How the values were obtained:
Assay type in all cases: biochemical
HCV protease [1] = target: T1, HCV protease (Hepatitis C virus genotype 1a, UniProt P26664); experiment: NS5A/5B as substrate to screen HCV protease inhibitor candidates; details: control setup, pro A-NS5 substrate
T1 construct: Peptide 4A, a co-factor of the NS3 HCV protease; made in house
Method: The substrate polypeptide, (10 μg/well) in 200 μl was added to a human IgG coated plate and incubated for one hour. The plate was washed five times with wash buffer. The inhibitor, if any, was pre-incubated (diluted to 1 uM) with HCV protease, NS4A (0.2 uM) for one hour at room temperature. Peptide 4A, a co-factor of the NS3 HCV protease was added in different concentrations to all wells containing the protease mixture (20X concentration is 4 μM). […] The final concentration of the NS4A in each well was 4 μM. The plate was washed five times with wash buffer. Mouse anti-FLAG monoclonal antibody in the amount of 200 μl (1:200d from stock solution) was added to the designated wells and incubated one hour at 37° C. The plate was washed five times with wash buffer. Affinity purified goat anti-mouse (H+L)-HRP (Fab′)2 conjugate (1:5000d) in the amount of 200 μl was added to all the reaction wells except the blank well and incubated one hour at 37° C. The plate was washed five times with wash buffer. Then the plate was developed with OPD substrate for 30 minutes at room temperature. The plate was read with a microtiter plate reader at 490/620 nm.
Using NS5A/5B as Substrate to Screen HCV Protease Inhibitor Candidates
A target polypeptide was prepared having an anchor region, a linker region, a protease target site of HCV NS5A/5B, another linker region, and a FLAG epitope tag region. […]

HCV protease [2] = target: T1, HCV protease; experiment: HCV protease inhibitor screening assay using NS5A/5B cleavage site (pro A-NS5 substrate, anti-FLAG/HRP OD readout)
Excerpt: The HCV Protease Inhibitor Screening Assay Using NS5A/5B as Cleavage Site Expression Construct and its Encoded Polypeptide
A fragment encoding HCV NS5 peptide protease target site was inserted in frame into the polylinker region of pEZZ18 so that it is connected at the C-terminal region of Protein A. The NS5 peptide protease target site includes the NS5A and NS5B cleavage site, i.e., amino acids 2420 and 2421, 7 amino acids at the N-terminal side of the cleavage site, and 8 amino acids at the C-terminal side of the cleavage site.
Another sequence fragment encoding the FLAG tag was inserted in frame at the C-terminal end of the NS5 peptide protease target site. The sequence fragment encodes three FLAG tags alternately spaced with two 4-Glycine spacers.
Microwell plates containing 96 wells were prepared by coating the wells with IgG. Then the plates were dried. The purified protein NS5 was incubated with the dry plates for 1 hour at 37° C. to allow binding of the Protein A region of the protein to the IgG in the microwells.
Protease was prepared by elution from a nickel column. Various concentrations of HCV protease were prepared. The protease was incubated with and without a known protease inhibitor, DCIC (di-chloro-iso-coumarin). The incubation was for 1 hour at room temperature. Subsequently the protease was transferred to the coated plates. […]
Diluted monoclonal anti-FLAG mouse antibodies (available from Kodak) were added to the HCV protease treated plates and incubated with the plates for 1 hour at 37° C. The plates were subsequently washed and incubated with affinity purified goat anti-mouse-HRP (horse radish peroxidase) conjugates for 1 hour at 37° C. Then the plates were washed, and incubated with a developer such as o-phenylenediamine dihydrochloride (OPD). The optical density (OD) was determined at 492 and 620 nm settings.

HCV protease [3] = target: T1, HCV protease; experiment: Short incubation time, NS5A/5B substrate HCV protease inhibitor screen; details: control setup; duplicates; listed as control 4
Method: Using a Short Incubation Time and NS5A/5B as a Substrate to Screen HCV Protease Inhibitors
A target polypeptide was prepared having an anchor region (protein A) molecule, a linker, a protease target site of HCV NS5A/5B, another linker, and a FLAG epitope tag region. The target polypeptide was expressed in sufficient quantities to conduct the assay.
The inhibitor was pre-incubated (diluted to 1 μM) with HCV protease (0.2 μM) for 1 hour at room temperature. A solution of NS5A/5B substrate (20 μg/well) was added to the pre-incubated protease and protease inhibitor mixture, and the total mixture was incubated for 15 minutes. The mixture was transferred to a human IgG coated plate and incubated for 1 hour at 37° C. The plate was washed five times with wash buffer.
Two hundred microliter of mouse anti-FLAG monoclonal antibody (1:200d from stock solution) was added to the designated wells and incubated for 1 hour at 37° C. The plate was washed five times with wash buffer. Affinity purified goat anti-mouse (H+L)-HRPO (Fab′)2 conjugate (1:5000d) in the amount of 200 μl was added to all the reaction wells except the blank well and incubate 1 hour at 37° C. The plate was washed five times with wash buffer. The plate was developed with OPD substrate for 30 minutes at room temperature. The plate was read with a microtiter plate reader at 490/620 nm.

NS3 HCV protease = target: T2, NS3 HCV protease (Hepatitis C virus genotype 1a, UniProt P26664); experiment: HCV protease inhibitor screening assay using NS4B/5A cleavage site with co-factor peptide 4A; details: DCIC 1 μM, duplicates
T2 construct: Peptide 4A, a co-factor of the NS3 HCV protease; made in house
Method: The HCV Protease Inhibitor Screening Assay Using NS4B/5A Cleavage Site
Plate: Human IgG coated on HB COSTAR plate, 200 ng/well
The protease: Ni-13 (F21) diluted 1:300 in the enzyme stock buffer
The protease inhibitor: diluted to 1 mM in the enzyme stock buffer
A substrate polypeptide was prepared having an anchor region (protein A), a linker, two protease target sites of NS4B/5A, another linker, and a FLAG epitope tag. The target polypeptide was expressed in sufficient quantities to conduct the assay.
[…] The plate was washed five times with wash buffer. The inhibitor, if any, was pre-incubated (diluted to 1 uM) with HCV protease, NS4A (0.2 uM) for one hour at room temperature. Peptide 4A, a co-factor of the NS3 HCV protease was added in different concentrations to all wells containing the protease mixture (20X concentration is 4 μM). The above mixture was transferred to the plate coated with IgG-4B/5A complex and incubated overnight at room temperature (about 20° C. −25° C.). The final concentration of the NS4A in each well was 4 μM. The plate was washed five times with wash buffer. Mouse anti-FLAG monoclonal antibody in the amount of 200 μl (1:200d from stock solution) was added to the designated wells and incubated one hour at 37° C. The plate was washed five times with wash buffer. Affinity purified goat anti-mouse (H+L)-HRP (Fab′)2 conjugate (1:5000d) in the amount of 200 μl was added to all the reaction wells except the blank well and incubated one hour at 37° C. The plate was washed five times with wash buffer. Then the plate was developed with OPD substrate for 30 minutes at room temperature. The plate was read with a microtiter plate reader at 490/620 nm.

[4] = protease, substrate and inhibitor preincubated overnight, pools 1:100 D

T1 sequence (P26664 1027-1657): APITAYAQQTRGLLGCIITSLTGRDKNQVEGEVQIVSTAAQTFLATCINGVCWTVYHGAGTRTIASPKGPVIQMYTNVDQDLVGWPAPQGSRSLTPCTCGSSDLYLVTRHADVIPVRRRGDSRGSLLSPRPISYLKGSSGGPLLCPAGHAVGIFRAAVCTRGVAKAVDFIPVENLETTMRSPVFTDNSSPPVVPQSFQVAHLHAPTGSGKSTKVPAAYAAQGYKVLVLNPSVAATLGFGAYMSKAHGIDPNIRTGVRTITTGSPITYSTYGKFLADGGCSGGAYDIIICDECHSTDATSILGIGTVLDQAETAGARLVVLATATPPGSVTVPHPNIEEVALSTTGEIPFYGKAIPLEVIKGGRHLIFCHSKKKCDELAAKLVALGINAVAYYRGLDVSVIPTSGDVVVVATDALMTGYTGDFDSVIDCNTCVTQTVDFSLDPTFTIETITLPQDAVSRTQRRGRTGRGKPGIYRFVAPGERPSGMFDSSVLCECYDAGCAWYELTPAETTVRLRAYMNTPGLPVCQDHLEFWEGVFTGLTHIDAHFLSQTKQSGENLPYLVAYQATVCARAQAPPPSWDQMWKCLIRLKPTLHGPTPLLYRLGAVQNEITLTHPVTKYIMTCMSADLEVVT
T2 sequence (P26664 1027-1657): as above

`O=c1oc(Cl)c(Cl)c2ccccc12` [DCIC, di-chloro-iso-coumarin] was tested, and the “OD w/ DMSO 1 μl” value (HCV protease [1]; with DMSO 1 μl) was 2.596, the “OD w/o DMSO” value (HCV protease [1]; without DMSO) was 2.915 and the OD (HCV protease [2]; preincubation of protease, substrate and inhibitor overnight, pro A-NS5 10 μg/ml, protease 1:100 D) was 1.578. For the same molecule, the OD (HCV protease [2]; preincubation of protease, substrate and inhibitor overnight, pro A-NS5 10 μg/ml, protease 1:200 D) was 1.458, the OD (HCV protease [2]; preincubation of protease, substrate and inhibitor overnight, pro A-NS5 10 μg/ml, protease 1:500 D) was 1.083 and the “OD, Exp. 1” value (HCV protease [2]; [4]) was 1.235. The “OD, Exp. 2” value (HCV protease [2]; [4]) was 0.768, the OD (HCV protease [2]; substrate and protease incubated for 2 hours, pro A-NS5 10 μg/ml, protease 1:100 D) was 1.137 and the OD (HCV protease [2]; substrate and protease incubated for 2 hours, pro A-NS5 10 μg/ml, protease 1:200 D) was 1.235. For the same molecule, the OD (HCV protease [2]; substrate and protease incubated for 2 hours, pro A-NS5 10 μg/ml, protease 1:500 D) was 0.503, the OD (HCV protease [2]; substrate and protease incubated for 2 hours, proA-NS5 2 μg/ml, protease 1:100 D) was 0.627 and the OD (HCV protease [2]; substrate and protease incubated for 2 hours, proA-NS5 2 μg/ml, protease 1:200 D) was 0.631. It also gave an OD (HCV protease [2]; substrate and protease incubated for 2 hours, proA-NS5 2 μg/ml, protease 1:500 D) of 0.545, an OD (HCV protease [2]; substrate and protease incubated overnight, pro A-NS5 10 μg/ml, protease 1:100 D) of 0.899 and an OD (HCV protease [2]; substrate and protease incubated overnight, pro A-NS5 10 μg/ml, protease 1:200 D) of 0.998. The OD (HCV protease [2]; substrate and protease incubated overnight, pro A-NS5 10 μg/ml, protease 1:500 D) was 0.887, the OD (HCV protease [2]; substrate and protease incubated overnight, proA-NS5 2 μg/ml, protease 1:100 D) was 0.449 and the OD (HCV protease [2]; substrate and protease incubated overnight, proA-NS5 2 μg/ml, protease 1:200 D) was 0.467. For the same molecule, the OD (HCV protease [2]; substrate and protease incubated overnight, proA-NS5 2 μg/ml, protease 1:500 D) was 0.328, the “OD, 15 minutes preincubation” value (HCV protease [3]) was 1.563 and 1.590 and the “OD, 1 hour preincubation” value (HCV protease [3]) was 1.991 and 2.152. For the same molecule, the “OD of the reaction product” value (NS3 HCV protease; substrate 4B/5A 5 μg/well, 10X peptide 4A) was 1.435 and 1.328, the “OD of the reaction product” value (NS3 HCV protease; substrate 4B/5A 5 μg/well, 20X peptide 4A) was 1.374 and 1.373 and the “OD of the reaction product” value (NS3 HCV protease; substrate 4B/5A 5 μg/well, no peptide 4A) was 1.400 and 1.491. The “OD of the reaction product” value (NS3 HCV protease; substrate 4B/5A 10 μg/well, 10X peptide 4A) was 1.729 and 1.715, the “OD of the reaction product” value (NS3 HCV protease; substrate 4B/5A 10 μg/well, 20X peptide 4A) was 1.584 and 1.690 and the “OD of the reaction product” value (NS3 HCV protease; substrate 4B/5A 10 μg/well, no peptide 4A) was 1.769 and 1.686.
